Laboratory results reported in US20220290200A1, “GENETICALLY MODIFIED HOST CELLS PRODUCING GLYCOSYLATED CANNABINOIDS” (OCTARINE BIO IVS, priority 2019, published 2022).

Assay: In vitro glycosyl transferase performance, purified enzymes, % conversion of cannabinoids to cannabinoid glycosides
Assay type: biochemical
Conditions: acceptor CBD, UDP-Glucose
Outline: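 His-tagged glycosyl transferases expressed in E. coli XJb (DE3) were Ni-affinity purified. Cannabinoids (in methanol) were incubated with enzyme, UDP-sugar and alkaline phosphatase without shaking at 30 °C for 24 h. Products confirmed by LC-MS/QTOF; % conversion derived from substrate decrease and glycoside peak areas against authentic standards.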

| SMILES | Conversion % (CBD to the glycoside) (enzyme PL-159(Pt88G_GA), in vitro 30° C. 24 h) [%] | Conversion % (CBD to the glycoside) (enzyme PL-214(Cs73Y_GA)) [%] |
| --- | --- | --- |
| C=C(C)[C@@H]1CCC(C)=C[C@H]1c1c(O)cc(CCCCC)cc1O[C@@H]1O[C@H](CO)[C@@H](O)[C@H](O)[C@H]1O [OB1, CBD-1′-O-β-D-glucoside] | 75 |  |
| C=C(C)[C@@H]1CCC(C)=C[C@H]1c1c(O[C@@H]2O[C@H](CO)[C@@H](O)[C@H](O)[C@H]2O)cc(CCCCC)cc1O[C@@H]1O[C@H](CO)[C@@H](O)[C@H](O)[C@H]1O [OB6, CBD-1′-O-β-D-glucosyl-3′-O-β-D-glucoside] |  | 57.5 |
